These are literature values, as cited in patent US6488917B2, “Optical brighteners as bleaching agents” (L'Oreal, priority 1998, dated 2002).

The series relates to melanocytes. The note with it: known from the prior art.

As for `Oc1ccc(O)cc1` [hydroquinone], the cytotoxicity towards melanocytes entry is “known for its cytotoxicity towards melanocytes”.
